Measurements taken from publication PMC12778052 (Science Advances, 2026).

Assay: in vivo
Parameters: species or system NSG mice
Details: mouse; for tissue uptake at 2 min / tissue uptake at 0.25 h / tissue uptake at 1 h / tissue uptake at 2 h / tissue uptake at 3 h / tissue to tissue ratio at 2 min / tissue to tissue ratio at 0.25 h / tissue to tissue ratio at 1 h / tissue to tissue ratio at 2 h / tissue to tissue ratio at 3 h: NSG, iv, 1.85 MBq, total radioactivity
Experimental: Mice were injected with cancer cells subcutaneously in 100 μl of PBS (top right flank) for all tumor models. The following cell numbers were used: HT1376 (4 million), UC9 (3 million), UC14 (3 million), RT112 (1.5 million), T24(3 million), and SCaBER (4 million). Mice with tumor volumes of 100 to 200 mm^3 were used for all experiments. A minimum of four mice were used for all biodistribution studies. A minimum of seven mice were used in PD experiment to account for greater variability. To validate imaging studies, ex vivo biodistribution studies were conducted in mice with tumors of 100 to 200 mm^3 in size. […] In all other studies, a 60-min time point was chosen. Selected tissues (blood, skin, muscle, bone, salivary glands, tumor, lungs, heart, liver, pancreas, spleen, kidneys, bladder, and testicles) were collected, weighed, and counted, and their %IA/g values were calculated as described previously ([33]). For EV PD studies, fewer organs were harvested to accommodate a higher number of mice.

SMILES: CSCC[C@@H]1NC(=O)[C@@H]2CSCCC(=O)N3CN(CN(C3)C(=O)CCSC[C@H](NC(=O)CCOCCOCCOCCOCCOCCOCCOCCOCCOCCOCCOCCOCCNC(=O)CN3CCN(CC(=O)O)CCN(CC(=O)O)CC3)C(=O)N3CCC[C@H]3C(=O)N[C@@H](Cc3cccc4ccccc34)C(=O)N[C@@H](CC(=O)O)C(=O)N2)C(=O)CCSC[C@@H](C(N)=O)NC(=O)[C@H](Cc2c[nH]c3ccccc23)NC(=O)[C@@H]2C[C@@H](O)CN2C(=O)[C@@H]2CCCN2C(=O)[C@H]([C@@H](C)O)NC(=O)[C@H](CO)NC(=O)[C@H](Cc2c[nH]c3ccccc23)NC(=O)[C@@H](CC(=O)O)NC(=O)[C@H](CCCCNC(=N)N)NC1=O [[^68Ga]AJ647, metal not drawn]
- tissue uptake at 2 min (Blood): 35.8 ± 3.64 %ID/g
- tissue uptake at 0.25 h (Blood): 2.94 ± 0.68 %ID/g
- tissue uptake at 1 h (Blood): 0.84 ± 0.22 %ID/g
- tissue uptake at 2 h (Blood): 0.28 ± 0.06 %ID/g
- tissue uptake at 3 h (Blood): 0.32 ± 0.09 %ID/g
- tissue uptake at 2 min (Femur): 1.88 ± 0.29 %ID/g
- tissue uptake at 0.25 h (Femur): 1.3 ± 0.05 %ID/g
- tissue uptake at 1 h (Femur): 0.57 ± 0.18 %ID/g
- tissue uptake at 2 h (Femur): 0.27 ± 0.09 %ID/g
- tissue uptake at 3 h (Femur): 0.34 ± 0.09 %ID/g
- tissue uptake at 2 min (Heart): 11.3 ± 0.51 %ID/g
- tissue uptake at 0.25 h (Heart): 1.15 ± 0.34 %ID/g
- tissue uptake at 1 h (Heart): 0.43 ± 0.07 %ID/g
- tissue uptake at 2 h (Heart): 0.19 ± 0.01 %ID/g
- tissue uptake at 3 h (Heart): 0.22 ± 0.01 %ID/g
- tissue uptake at 2 min (Liver): 6.45 ± 1.39 %ID/g
- tissue uptake at 0.25 h (Liver): 1.19 ± 0.3 %ID/g
- tissue uptake at 1 h (Liver): 0.45 ± 0.09 %ID/g
- tissue uptake at 2 h (Liver): 0.21 ± 0.07 %ID/g
- tissue uptake at 3 h (Liver): 0.23 ± 0.02 %ID/g
- tissue uptake at 2 min (Lung): 24.2 ± 7.05 %ID/g
- tissue uptake at 0.25 h (Lung): 3.66 ± 0.5 %ID/g
- tissue uptake at 1 h (Lung): 1.66 ± 0.25 %ID/g
- tissue uptake at 2 h (Lung): 0.81 ± 0.28 %ID/g
- tissue uptake at 3 h (Lung): 0.47 ± 0.2 %ID/g
- tissue uptake at 2 min (Muscle): 0.96 ± 0.19 %ID/g
- tissue uptake at 0.25 h (Muscle): 0.93 ± 0.36 %ID/g
- tissue uptake at 1 h (Muscle): 0.38 ± 0.06 %ID/g
- tissue uptake at 2 h (Muscle): 0.2 ± 0.11 %ID/g
- tissue uptake at 3 h (Muscle): 0.18 ± 0.05 %ID/g
- tissue uptake at 2 min (Salivary glands): 6.3 ± 1.24 %ID/g
- tissue uptake at 0.25 h (Salivary glands): 4.74 ± 0.94 %ID/g
- tissue uptake at 1 h (Salivary glands): 1.48 ± 0.18 %ID/g
- tissue uptake at 2 h (Salivary glands): 0.67 ± 0.09 %ID/g
- tissue uptake at 3 h (Salivary glands): 0.69 ± 0.07 %ID/g
- tissue uptake at 2 min (Skin): 1.13 ± 0.16 %ID/g
- tissue uptake at 0.25 h (Skin): 2.74 ± 0.5 %ID/g
- tissue uptake at 1 h (Skin): 1.45 ± 0.33 %ID/g
- tissue uptake at 2 h (Skin): 0.82 ± 0.22 %ID/g
- tissue uptake at 3 h (Skin): 0.66 ± 0.12 %ID/g
- tissue uptake at 2 min (Small intestine): 0.85 ± 0.23 %ID/g
- tissue uptake at 0.25 h (Small intestine): 0.68 ± 0.23 %ID/g
- tissue uptake at 1 h (Small intestine): 0.52 ± 0.17 %ID/g
- tissue uptake at 2 h (Small intestine): 0.16 ± 0.02 %ID/g
- tissue uptake at 2 min (Stomach): 0.34 ± 0.11 %ID/g
- tissue uptake at 0.25 h (Stomach): 0.49 ± 0.36 %ID/g
- tissue uptake at 2 h (Stomach): 0.13 ± 0.04 %ID/g
- tissue uptake at 2 min (Thymus): 15.7 ± 5.42 %ID/g
- tissue uptake at 0.25 h (Thymus): 2.38 ± 0.7 %ID/g
- tissue uptake at 1 h (Thymus): 0.71 ± 0.3 %ID/g
- tissue uptake at 2 h (Thymus): 0.67 ± 0.21 %ID/g
- tissue uptake at 3 h (Thymus): 0.52 ± 0.23 %ID/g
- tissue uptake at 2 min (Tumor): 0.72 ± 0.31 %ID/g
- tissue uptake at 0.25 h (Tumor): 3.75 ± 0.86 %ID/g
- tissue uptake at 1 h (Tumor): 3.72 ± 0.36 %ID/g
- tissue uptake at 2 h (Tumor): 2.06 ± 0.49 %ID/g
- tissue uptake at 3 h (Tumor): 1.39 ± 0.32 %ID/g
- tissue to tissue ratio at 2 min (Tumor/blood ratio): 0.02 ± 0.01
- tissue to tissue ratio at 0.25 h (Tumor/blood ratio): 1.41 ± 0.4
- tissue to tissue ratio at 1 h (Tumor/blood ratio): 4.6 ± 0.47
- tissue to tissue ratio at 2 h (Tumor/blood ratio): 7.27 ± 0.76
- tissue to tissue ratio at 3 h (Tumor/blood ratio): 4.58 ± 1.33
- tissue to tissue ratio at 2 min (Tumor/muscle ratio): 0.79 ± 0.45
- tissue to tissue ratio at 0.25 h (Tumor/muscle ratio): 4.23 ± 0.94
- tissue to tissue ratio at 1 h (Tumor/muscle ratio): 10.1 ± 2.19
- tissue to tissue ratio at 2 h (Tumor/muscle ratio): 11.3 ± 3.03
- tissue to tissue ratio at 3 h (Tumor/muscle ratio): 8.2 ± 4.02
- tissue uptake at 2 min (male, Adrenals): 4.81 ± 2.58 %ID/g
- tissue uptake at 0.25 h (male, Adrenals): 2.6 ± 1.1 %ID/g
- tissue uptake at 1 h (male, Adrenals): 4.45 ± 2.03 %ID/g
- tissue uptake at 3 h (male, Adrenals): 3.8 ± 0.47 %ID/g
- tissue uptake at 2 min (male, Bladder): 1.72 ± 0.24 %ID/g
- tissue uptake at 0.25 h (male, Bladder): 24.1 ± 15.3 %ID/g
- tissue uptake at 1 h (male, Bladder): 39.5 ± 21.3 %ID/g
- tissue uptake at 2 h (male, Bladder): 22.6 ± 6.46 %ID/g
- tissue uptake at 3 h (male, Bladder): 58 ± 24.8 %ID/g
- tissue uptake at 2 min (male, Brain): 0.54 ± 0.15 %ID/g
- tissue uptake at 0.25 h (male, Brain): 0.1 ± 0.02 %ID/g
- tissue uptake at 1 h (male, Brain): 0.06 ± 0.01 %ID/g
- tissue uptake at 2 h (male, Brain): 0.06 ± 0.02 %ID/g
- tissue uptake at 3 h (male, Brain): 0.06 ± 0.02 %ID/g
- tissue uptake at 0.25 h (male, Kidney): 20.4 ± 3.7 %ID/g
- tissue uptake at 1 h (male, Kidney): 30.8 ± 4.37 %ID/g
- tissue uptake at 2 h (male, Kidney): 17.3 ± 12.9 %ID/g
- tissue uptake at 2 min (male, Large intestine): 0.25 ± 0.16 %ID/g
- tissue uptake at 0.25 h (male, Large intestine): 0.41 ± 0.11 %ID/g
- tissue uptake at 3 h (male, Large intestine): 0.18 ± 0.05 %ID/g
- tissue uptake at 2 min (male, Pancreas): 2.39 ± 0.72 %ID/g
- tissue uptake at 0.25 h (male, Pancreas): 2.5 ± 0.38 %ID/g
- tissue uptake at 1 h (male, Pancreas): 0.93 ± 0.03 %ID/g
- tissue uptake at 2 h (male, Pancreas): 0.3 ± 0.06 %ID/g
- tissue uptake at 3 h (male, Pancreas): 0.42 ± 0.02 %ID/g
- tissue uptake at 2 min (male, Spleen): 1.04 ± 0.23 %ID/g
- tissue uptake at 0.25 h (male, Spleen): 4.32 ± 1.31 %ID/g
- tissue uptake at 1 h (male, Spleen): 1.75 ± 0.21 %ID/g
- tissue uptake at 2 h (male, Spleen): 0.84 ± 0.17 %ID/g
- tissue uptake at 3 h (male, Spleen): 0.83 ± 0.07 %ID/g
- tissue uptake at 2 min (male, Testicles): 0.79 ± 0.07 %ID/g
- tissue uptake at 0.25 h (male, Testicles): 0.86 ± 0.12 %ID/g
- tissue uptake at 1 h (male, Testicles): 0.74 ± 0.2 %ID/g
- tissue uptake at 2 h (male, Testicles): 0.52 ± 0.17 %ID/g
- tissue uptake at 3 h (male, Testicles): 0.93 ± 0.5 %ID/g
- blood pool activity cleared: more than 90%
